According to paper PMC3700073, “Synthesis and Biological Activity of New Thiopyrano[2,3-d]thiazoles Containing a Naphthoquinone Moiety” (Scientia Pharmaceutica, 2013):
Read-outs that look alike come from different tables or passages of the source.

What was measured:
[1] = system: IGROV-1 (ovarian cancer); test: NCI five-dose assay; type: cell-based; settings: Homo sapiens
[2] = system: UACC-62 (melanoma); test: NCI five-dose assay; type: cell-based; settings: Homo sapiens, UACC-62, UACC-62, melanoma
[3] = system: MDA-MB-231/ATCC (breast cancer); test: NCI five-dose assay; type: cell-based; settings: Homo sapiens, MDA-MB-231, MDA-MB-231/ATCC
[4] = system: M14 (melanoma); test: NCI five-dose assay; type: cell-based; settings: Homo sapiens
[5] = system: MOLT-4 (leukemia); test: NCI five-dose assay; type: cell-based; settings: Homo sapiens, MOLT-4, MOLT-4, leukemia
[6] = system: KM12 (colon cancer); test: NCI five-dose assay; type: cell-based; settings: Homo sapiens
[7] = system: MDA-MB-435 (breast cancer); test: NCI five-dose assay; type: cell-based; settings: Homo sapiens, MDA-MB-435, MDA-MB-435, breast cancer
[8] = system: A549/ATCC (NSCL cancer); test: NCI five-dose assay; type: cell-based; settings: Homo sapiens
[9] = system: DU-145 (prostate cancer); test: NCI five-dose assay; type: cell-based; settings: Homo sapiens, DU-145, DU-145, prostate cancer
[10] = system: 60 cancer cell lines; test: cells; settings: Homo sapiens
[11] = system: UO-31 (renal cancer); test: NCI five-dose assay; type: cell-based; settings: Homo sapiens, UO-31, UO-31, renal cancer
[12] = system: ACHN (renal cancer); test: NCI five-dose assay; type: cell-based; settings: Homo sapiens
[13] = system: LOX IMVI (melanoma); test: NCI five-dose assay; type: cell-based; settings: Homo sapiens
[14] = system: SK-MEL-2 (melanoma); test: NCI five-dose assay; type: cell-based; settings: Homo sapiens, SK-MEL-2, SK-MEL-2, melanoma
[15] = system: SK-OV-3 (ovarian cancer); test: NCI five-dose assay; type: cell-based; settings: Homo sapiens, SK-OV-3, SK-OV-3, ovarian cancer
[16] = system: HT29 (colon cancer); test: NCI five-dose assay; type: cell-based; settings: Homo sapiens, HT-29, HT29, colon cancer
[17] = system: SR (leukemia); test: NCI five-dose assay; type: cell-based; settings: Homo sapiens
[18] = system: SN12C (renal cancer); test: NCI five-dose assay; type: cell-based; settings: Homo sapiens, repeated testing
[19] = system: SK-MEL-5 (melanoma); test: NCI five-dose assay; type: cell-based, human; settings: Homo sapiens, SK-MEL-5, SK-MEL-5, melanoma
[20] = system: A498 (renal cancer); test: NCI five-dose assay; type: cell-based; settings: Homo sapiens
[21] = system: NCI/ADR-RES (breast cancer); test: NCI five-dose assay; type: cell-based; settings: Homo sapiens
[22] = system: TK-10 (renal cancer); test: NCI five-dose assay; type: cell-based; settings: Homo sapiens, TK-10, TK-10, renal cancer
[23] = system: HOP-62 (NSCL cancer); test: NCI five-dose assay; type: cell-based; settings: Homo sapiens, HOP-62, HOP-62, NSCL cancer
[24] = system: male mice; test: Acute toxicity in vivo, median lethal dose; settings: intraperitoneal, approximate LD50 (Litchfield and Wilcoxon)
Protocol: The synthesized compounds were evaluated for their approximate LD50 in male mice. The mice were kept under a constant temperature and humidity in sterile cages with water and food. The stock solutions of the compounds used in this study were prepared immediately before usage and injected intraperitoneally (ip). The LD50 values (Tab. 3) were calculated using the method described by Litchfield and Wilcoxon.
The median lethal dose (LD50), the dose of the selected compounds that causes 50% mortality in mice, was determined from dose–response curves with at least four doses by the method of Litchfield and Wilcoxon.

[25] = system: 786-0 (renal cancer); test: NCI five-dose assay; type: cell-based; settings: Homo sapiens, 786-0, 786-0, renal cancer
[26] = system: NCI-H522 (NSCL cancer); test: NCI five-dose assay; type: cell-based; settings: Homo sapiens
[27] = system: RPMI-8226 (leukemia); test: NCI five-dose assay; type: cell-based; settings: Homo sapiens, RPMI-8226, RPMI-8226, leukemia
[28] = system: OVCAR-3 (ovarian cancer); test: NCI five-dose assay; type: cell-based; settings: Homo sapiens, OVCAR-3, OVCAR-3, ovarian cancer
[29] = system: SF-268 (CNS cancer); test: NCI five-dose assay; type: cell-based; settings: Homo sapiens, SF-268, SF-268, CNS cancer
[30] = system: OVCAR-5 (ovarian cancer); test: NCI five-dose assay; type: cell-based; settings: Homo sapiens, OVCAR-5, OVCAR-5, ovarian cancer
[31] = system: OVCAR-4 (ovarian cancer); test: NCI five-dose assay; type: cell-based; settings: Homo sapiens, OVCAR-4, OVCAR-4, ovarian cancer
[32] = system: CAKI-1 (renal cancer); test: NCI five-dose assay; type: cell-based; settings: Homo sapiens, CAKI-1, CAKI-1, renal cancer
[33] = system: CCRF-CEM (leukemia); test: NCI five-dose assay; type: cell-based; settings: Homo sapiens
[34] = system: NCI-H322M (NSCL cancer); test: NCI five-dose assay; type: cell-based; settings: Homo sapiens
[35] = system: SF-295 (CNS cancer); test: NCI five-dose assay; type: cell-based; settings: Homo sapiens, SF-295, SF-295, CNS cancer
[36] = system: BT-549 (breast cancer); test: NCI five-dose assay; type: cell-based; settings: Homo sapiens, BT-549, BT-549, breast cancer

Compound COc1cc(C2C3=C(Sc4[nH]c(=O)sc42)C(=O)c2ccccc2C3=O)ccc1O (stereo not drawn) [Compound 4i, 11-(4-Hydroxy-3-methoxyphenyl)-3,11-dihydro-2H-benzo[6,7]thiochromeno[2,3-d]-[1,3]thiazole-2,5,10-trione] has a GI50 [1] of 2480 nM, a GI50 [2] of 430 nM and a GI50 ([2]; repeated testing) of 1590 nM. For the same compound, the GI50 [3] was 860 nM, the GI50 ([3]; repeated testing) was 1980 nM and the GI50 [4] was 1250 nM. The GI50 ([4]; repeated testing) was 1220 nM, the GI50 [5] was 2770 nM and the GI50 ([5]; repeated testing) was 3670 nM. The GI50 [6] was 2250 nM, the GI50 ([6]; repeated testing) was 2510 nM and the GI50 [7] was 1380 nM. It also gave a GI50 ([7]; repeated testing) of 1480 nM, a GI50 [8] of 1340 nM and a GI50 ([8]; repeated testing) of 650 nM. It also gave a GI50 [9] of 510 nM, a GI50 ([9]; repeated testing) of 930 nM and a GI50 ([10]; read-out: GI50 MG_MID, over the cell line panel) of 1950 nM. The GI50 ([10]; read-out: GI50 MG_MID, over the cell line panel, repeated testing) was 1700 nM, the GI50 ([10]; read-out: GI50 Range (min – max), over the cell line panel) was 160 to 41400 nM and the GI50 ([10]; read-out: GI50 Range (min – max), over the cell line panel, repeated testing) was 220 to 5720 nM. The CC50 ([10]; read-out: LC50 MG_MID, over the cell line panel) was 42700 nM, the CC50 ([10]; read-out: LC50 MG_MID, over the cell line panel, repeated testing) was 38000 nM and the CC50 ([10]; read-out: LC50 Range (min – max), over the cell line panel) was 4140 to 92400 nM. For the same compound, the CC50 ([10]; read-out: LC50 Range (min – max), over the cell line panel, repeated testing) was 4930 to 86600 nM, the GI50 [11] was 3330 nM and the GI50 ([11]; repeated testing) was 570 nM. The GI50 [12] was 2950 nM, the GI50 ([12]; repeated testing) was 1660 nM and the GI50 [13] was 160 nM. It also gave a GI50 ([13]; repeated testing) of 250 nM, a GI50 [14] of 2210 nM and a GI50 ([14]; repeated testing) of 980 nM. The GI50 [15] was 8280 nM, the GI50 ([15]; repeated testing) was 5720 nM and the GI50 [16] was 2350 nM. It also gave a GI50 ([16]; repeated testing) of 2020 nM, a GI50 [17] of 41400 nM and a GI50 ([17]; repeated testing) of 1960 nM. It also gave a GI50 [18] of 3020 nM, a GI50 [19] of 960 nM and a GI50 ([19]; repeated testing) of 480 nM. The GI50 [20] was 1950 nM, the GI50 ([20]; repeated testing) was 2110 nM and the GI50 [21] was 8390 nM. The GI50 ([21]; repeated testing) was 4500 nM, the GI50 [22] was 5740 nM and the GI50 ([22]; repeated testing) was 2160 nM. It also gave a GI50 [23] of 400 nM, a GI50 ([23]; repeated testing) of 3600 nM and an LD50ip [24] of 280 mg/kg. It also gave a GI50 [25] of 2600 nM, a GI50 ([25]; repeated testing) of 5200 nM and a GI50 [26] of 1960 nM. The GI50 ([26]; repeated testing) was 2120 nM, the GI50 [27] was 1930 nM and the GI50 ([27]; repeated testing) was 1330 nM. It also gave a GI50 [28] of 1030 nM, a GI50 ([28]; repeated testing) of 570 nM and a GI50 [29] of 2530 nM. The GI50 ([29]; repeated testing) was 3300 nM, the GI50 [30] was 10400 nM and the GI50 ([30]; repeated testing) was 4490 nM. It also gave a GI50 [31] of 2190 nM, a GI50 ([31]; repeated testing) of 1330 nM and a GI50 [32] of 1500 nM. The GI50 ([32]; repeated testing) was 2920 nM, the GI50 [33] was 3190 nM and the GI50 ([33]; repeated testing) was 1840 nM. The GI50 [34] was 2050 nM, the GI50 ([34]; repeated testing) was 1860 nM and the GI50 [35] was 1710 nM. It also gave a GI50 ([35]; repeated testing) of 1140 nM, a GI50 [36] of 2740 nM and a GI50 ([36]; repeated testing) of 920 nM.
